# Measured values as given in patent US12629379B2, “Pharmaceutical composition for preventing, suppressing, or treating symptom associated with allergic reaction” (Nippon Chemiphar Co., Ltd., priority 2020, dated 2026).
# Columns and labels:
# PSA model mice = experiment: Passive systemic anaphylaxis (PSA) in IgE-sensitized mice, body temperature change; type: in vivo; settings: for body temperature decrease-suppressing effect: 10 mg/kg intraperitoneally before tail vein DNP-HSA, vs vehicle group
# Protocol: The mice were sensitized by tail vein administration of 10 μg/200 μL IgE (physiological saline) under anesthesia.
# Male C57BL/6J mice (7 to 8 or 10 to 11 weeks old, produced by Japan SLC, Inc) were used as the mice.
# The DNP-HSA administration was arranged to be performed 24 hours after the preparation of the IgE-sensitized mice.
# Moreover, with the rest of the IgE-sensitized mice, a group administered with physiological saline as a control for Compound A (vehicle group) and a group administered with the solvent B as a control for Compound B (vehicle group) were prepared.
# PSA model mice were prepared, and anaphylaxis was induced by tail vein administration of 100 ng/200 μL (physiological saline) DNP-HSA to unanesthetized mice 24 hours after the preparation of the IgE-sensitized mice.
# Inducing systemic anaphylaxis causes a rapid decrease in the body temperatures of the PSA model mice.
# The measurement of the body temperature change was performed by measuring, with BAT-7001H Thermometer (Physitemp Instruments, LLC.), the rectal temperatures every 5 minutes from 0 minutes to 60 minutes after the administration, the 0 minutes being defined as the time of the DNP-HSA administration.
# [1] = test system: IgE-sensitized bone marrow-derived mast cells (BMMCs); experiment: Degranulation reaction (β-hexosaminidase release rate) of IgE-sensitized BMMCs costimulated with DNP-HSA and ATP; type: cell-based, mice; settings: for β-hexosaminidase release rate compared to the control BMMCs / β-hexosaminidase release rate compared to the control BMMCs (dose dependence): group (4): costimulation with ATP and DNP-HSA (10 ng/ml); for β-hexosaminidase release rate compared to the control BMMCs (dose dependence): preincubation with compound 1, 3, 10 μM
# Protocol: (§1) The degranulation reaction was performed by obtaining a degranulation rate using a β-hexosaminidase release rate as an index. The β-hexosaminidase release rate was measured as in the section (Degranulation Experiment) below.
# Bone marrow was collected from femora of male C57BL/6J mice (7 to 8 weeks old, produced by Japan SLC, Inc). Red blood cells were hemolyzed, and culture was performed in a medium containing 10% fetal bovine serum (FBS), penicillin (100 unit/ml), streptomycin (100 μg/ml), and recombinant mouse IL-3 (10 ng/ml, manufactured by PeproTech, Inc.) for 14 days. Stem cell factor (SCF) (10 ng/ml) was added to the medium from Day 15, and the culture was performed for 35 to 42 days to be used for the experiment. Whether the cells were differentiated into mast cells was confirmed by the degrees the of c-KIT and FcεRI expressions. The confirmation was performed by using FACSCant II (manufactured by BD Biosciences).
# (§2) Anti-DNP-IgE antibody (clone: SPE-7, manufactured by Sigma-Aldrich, Inc.) was added to the BMMC culture solution so that the concentration reached 50 ng/ml, and the BMMCs were sensitized overnight. To be used in the experiment, the BMMCs were washed with PBS(−) and suspended in Krebs Ringer-HEPES Buffer (NaCl 130 mM, KCl 4.7 mM, NaHCO34.0 mM, KH2P4 1.2 mM, Glucose 11.5 mM, HEPES 10 mM, and CaCl2·H2O 1.8 mM) so that the concentration reached 1×10^6 cell/ml.
# Then, the BMMCs were each set up into the following 4 groups. • (1) A group in which nothing was added to the BMMCs, • (2) a group in which only ATP was added to the BMMCs, • (3) a group in which only DNP-HSA (10 ng/ml) was added to the BMMCs as an antigen, and • (4) a group in which a mixed solution of ATP and DNP-HSA (10 ng/ml) was added to the BMMCs at once.
# Each of the 4 groups was stimulated at 37° C. for 5 minutes and rapidly cooled on ice, and then centrifugation was performed to stop the reaction. After collecting the supernatant, precipitated cells were lysed with 0.1% triton X-100. The supernatant and the cell lysis solution (50 μL) were mixed with 10 mM 4-Nitrophenyl N-acetyl-p-D-glucosaminide (manufactured by Sigma-Aldrich, Inc.) which was a β-hexosaminidase substrate/50 mM citrate buffer (pH 4.5, 50 μL), and the mixture was incubated at 37° C. for 30 minutes. 50 mM carbonate buffer (pH 10.0, 100 μL) was added to stop the reaction, and absorbance was measured at 405/655 using an absorbance microplate reader Sunrise (manufactured by Tecan Trading AG). The β-hexosaminidase release rate was obtained from the following formula. β-hexosaminidase release rate=Absorbance of supernatant/(Absorbance of supernatant+absorbance of cell lysis station)×100
# Note that, in the present Example, the numbers of specimens were all n=3, and the significant differences in the present Example are indicated with “*” or “**” in FIGS. 1 and 2, “*” indicating P<0.05, and “**” P<0.01. In addition, “*” or “**” in FIGS. 1 and 2 each indicate that there was a significant difference as a result of comparison with the control in the same group.
# BMMCs = experiment: IL-6, IL-13 and TNF-α release by stimulated BMMCs (ELISA); type: cell-based, mice; settings: 10 μM, pretreatment 5 minutes; stimulation 3 hours
# Protocol: BMMCs were washed with a fresh culture solution and subjected to reactions in the presence and absence of a stimulating agent (100 μM ATP, 1 μM PGE2, 100 μM ATP+1 μM PGE2) for 3 hours.
# The grouping is as shown below and matches the numbers in parentheses indicated in FIGS. 7 to 9. • (1) A group in which nothing was added to the BMMCs, • (2) a group in which only ATP was added to the BMMCs, • (3) a group in which only PGE2 was added to the BMMCs, and • (4) a group in which a mixed solution of ATP and PGE2 was added to the BMMCs at once.
# Cytokines released into the reaction solution (interleukin (IL)-6, IL-13, and TNF-α) were measured using ELISA kits (Invitrogen Corporation).
# IgE-sensitized BMMCs = experiment: Degranulation reaction (β-hexosaminidase release rate) of IgE-sensitized BMMCs costimulated with PGE2 and ATP; type: cell-based, mice
# Protocol: as §1
# Setting up of BMMCs was performed according to the method described in Example 2.
# as §2, with “NaHCO3 4.0” for “NaHCO34.0”
# Then, the BMMCs were each set up into the following 6 groups. Note that the numbers in the parentheses below match the numbers in parentheses in FIG. 6. • (1) A group in which nothing was added to the BMMCs, • (2) a group in which only ATP was added to the BMMCs, • (3) a group in which only PGE2 (1 μM) was added to the BMMCs, • (4) a group in which a mixed solution of ATP and PGE2 (1 μM) was added to the BMMCs at once, • (5) a group in which only DNP-HSA (10 ng/ml) was added to the BMMCs as an antigen, and • (6) a group in which a mixed solution of ATP and DNP-HSA (10 ng/ml) was added to the BMMCs at once.
# Each of the 6 groups was stimulated at 37° C. for 5 minutes and rapidly cooled on ice, and then centrifugation was performed to stop the reaction. After collecting the supernatant, precipitated cells were lysed with 0.1% triton X-100. […] 50 mM carbonate buffer (pH 10.0, 100 μL) was added to stop the reaction, and absorbance was measured at 405/655 using an absorbance microplate reader Sunrise (manufactured by Tecan Trading AG). The β-hexosaminidase release rate was obtained from the following formula. β-hexosaminidase release rate=Absorbance of supernatant/(Absorbance of supernatant+absorbance of cell lysis station)×100 (Test Result) […]
# PCA model mice = experiment: Passive cutaneous anaphylaxis (PCA) in IgE-sensitized mice, Evans blue in the auricle; type: in vivo
# Protocol: The mice were sensitized by subcutaneously administering 100 ng/20 μL IgE into the right ears under anesthesia. Only physiological saline was administered into the left ears.
# Male C57BL/6J mice (10 to 11 weeks old, produced by Japan SLC, Inc) were used as the mice.
# Note that the DNP-HSA administration was performed by tail vein administration and was arranged to be performed 24 hours after the preparation of the IgE-sensitized mice.
# Note that the concentration of 65% Kolliphor EL was prepared using ethanol and a small amount of sterile water for injection (or water). In addition, the DNP-HSA administration was arranged to be performed 24 hours after the preparation of the IgE-sensitized mice.
# Moreover, with the rest of the IgE-sensitized mice, a group administered with physiological saline as a control for Compound A (vehicle group) and a group administered with the solvent B as a control for Compound B (vehicle group) were prepared. […]
# The PCA model mice were euthanized 30 minutes after the DNP-HSA administration, the auricles were collected, and the weights of the auricles were measured. […] Absorbance (620 nm) of the extracted Evans blue and the calibration curve was measured using the absorbance microplate reader Sunrise (Tecan Trading AG), and the concentrations were calculated.
# [2] = 10 mg/kg intraperitoneally 30 minutes before DNP-HSA
SMILES,persistence of the body temperature decrease-suppressing effect (PSA model mice; [2]),time over which there was a significant difference in the body temperature decrease-suppressing effect (PSA model mice; [2]),body temperature decrease-suppressing effect (PSA model mice),"β-hexosaminidase release rate compared to the control BMMCs ([1]; all concentrations of 1 μM, 3 μM, and 10 μM)",β-hexosaminidase release rate compared to the control BMMCs (dose dependence) [1],"β-hexosaminidase release rate ([1]; groups (1) to (3) not subjected to costimulation with ATP and DNP-HSA (10 ng/ml), compound 1, 3 or 10 μM)",ATP-induced increase in IL-6 release (BMMCs),ATP-induced increase in IL-13 release (BMMCs),ATP-induced increase in TNF-α release (BMMCs),"β-hexosaminidase release rate compared to the control BMMCs (IgE-sensitized BMMCs; group (4): costimulation with ATP (0.1 mM) and PGE2 (1 μM), all concentrations of 1 μM, 3 μM, and 10 μM)","β-hexosaminidase release rate compared to the control BMMCs (dose dependence) (IgE-sensitized BMMCs; group (4): costimulation with ATP (0.1 mM) and PGE2 (1 μM), preincubation with compound 1, 3, 10 μM)","β-hexosaminidase release rate (IgE-sensitized BMMCs; groups (1) to (3) not subjected to costimulation with ATP (0.1 mM) and PGE2, compound 1, 3 or 10 μM)","increase in Evans Blue per auricle weight (PCA model mice; 10 mg/kg intraperitoneally 1 hour before tail vein DNP-HSA, vs vehicle group)","increase in Evans Blue per auricle weight (PCA model mice; 10 mg/kg orally administered, not shown in the drawing)",β-hexosaminidase release rate compared to the control BMMCs ([1]; concentrations of 3 μM and 10 μM)
"O=C1CC(=O)N(c2cccc(-c3noc(=S)[nH]3)c2)c2ccc3ccccc3c2N1.[Na] [Compound A17, 5-[3-(5-thioxo-4H-[1,2,4]oxadiazol-3-yl)phenyl]-1H-naphtho[1,2-b][1,4]diazepine-2,4(3H,5H)-dione sodium salt]",> 60 min,at least 35 minutes,significant body temperature decrease-suppressing effect,significantly decreased,decreased in a dose-dependent manner,lower than 10%,suppressed,suppressed,suppressed,significantly decreased,decreased in a dose-dependent manner,lower than 5%,–,–,–
"O=C1CC(=O)N(c2ccc(NC(=O)c3ccccc3I)cc2)c2ccc3ccccc3c2N1 [Compound B48, 5-[4-(2-iodobenzoylamino)phenyl]-1H-naphtho[1,2-b][1,4]diazepine-2,4(3H,5H)-dione]",–,–,significant body temperature decrease-suppressing effect,–,decreased in a dose-dependent manner,–,–,–,–,–,–,–,significantly suppressed,significantly suppressed,significantly decreased
